The values below come from patent US20030022826A1, “Use of synthetic peptides to induce tolerance to pathogenic T and B cell epitopes of autoantigens or infectious agents” (priority 1987, published 2003).

Marks after values point to notes of the source that are not given here.

The subject of test [1] is Th-B peptide, T1-SP10IIIB(A). Description: PBMC 3H-thymidine incorporation response to HIV Th-B peptide in immunized chimpanzees. In kind it is in vivo, chimpanzee. The note with it: 7 day tritiated thymidine incorporation assays. From the text: Acpm=experimental cpm—control cpm.
The subject of another test is HIVIIIB. Description: Anti-HIVIIIB neutralizing antibodies in immunized goats (reverse transcriptase inhibition). It counts as in vivo, HIV. The settings on record: 3 mg, CFA then IFA, after the fourth immunization. The procedure: FIG. 15. […] Goat 102A was immunized with 3 mg of the F-Th-B peptide, F-T1-SP10IIIB(A) and goat 104A was immunized with the HIVIIIB Th-B peptide, T1-SP10IIIB. Immunizations were in CFA (first dose) and IFA (doses 2-4). Neutralizing titers are titers at which reverse transcriptase production was inhibited by 90% or greater.
Immunizations: For goats, 3 mg of peptide were injected intramuscularly in each gluteal region in complete Freund's adjuvant (CFA) (1st dose), then incomplete Freund's adjuvant (IFA) (subsequent doses). For immunization of chimpanzees, varying doses of peptides were injected IM in IFA in a total volume of 4 cc, with 1 cc injected into right and left upper arms and thighs.
(§1) HIV Neutralization Assays: The ability of chimpanzee or goat serum antibodies to neutralize HIV was determined in syncytium inhibition assay and reverse transcriptase inhibition assay as previously described (Palker et al, J. Immunol. 142:3612 (1989); Palker et al, Proc. Natl. Acad. Sci. USA 85:1932 (1988)). Sera were heat inactivated (30 min, 56° C.) prior to each assay.

Test [2] has as its system Th-B peptide, T1-SP10IIIB. Description: Endpoint ELISA anti-peptide antibody titers in chimpanzees immunized with HIV env synthetic peptides. In kind it is in vivo, chimpanzee. The settings on record: for immunogenicity in chimpanzees (antibody response): low (0.1 mg/kg) or high (0.5 mg/kg) doses in IFA. The procedure:
Immunizations: For goats, 3 mg of peptide were injected intramuscularly in each gluteal region in complete Freund's adjuvant (CFA) (1st dose), then incomplete Freund's adjuvant (IFA) (subsequent doses). […]
When neither peptide design induced neutralizing anti-HIVIIIB antibodies, the peptide doses were increased to approximately 0.5 mg/kg (30 mg/animal) and the right-hand side neutralizing sequence of HIVIIIB gp120 V3 loop (the (A) region) (Hart et al, Proc. Natl. Acad. Sci. USA 88:9448; Rusche et al Proc. Natl. Acad. Sci. USA 85:3198)) (Table 8) was added to the Th-B peptide to enhance the ability of this peptide to induce anti-HIVIIIB neutralizing antibodies. After 3 monthly injections with either ˜0.5 mg/kg (30 mg) Th-B or F-Th-B peptide, the animals were rested for 6 months, and then reimmunized with either F-Th-B or Th-B with sequences from HIVIIIB, or with the Th-B peptide containing HIV env gp120 V3 sequences from the HIVMN isolate.
In general terms: In an ELISA, binding on a coated surface is turned into a signal by an enzyme label.

For the next test, the system named is JY B cells. The experiment in a line: Peptide entry into cells, intracytoplasmic fluorescence of acetone-fixed cells. In kind it is cell-based, human. The note with it: for % Intracytoplasmic Positive: peptide 10 μg/ml, 21 hours at 37 degrees C. The procedure:
Cells were incubated as descirbed in Table 13. After 21 hours at 37 degrees C., cytocentrifuge preparations of cells were prepared, acetone fixed, and reacted either with control mab P3x63 AgS or with anti-qp120 mab 0.5beta. Slides were read for either faint or bright intracytoplasmic fluoresence on a fluoresence microscope.

The next test concerns human JY B cells. Description: Peptide binding to human cells, flow cytometry with anti-gp120 mab 0.5beta. It counts as cell-based. The note with it: mean channel fluoresence, peptide 10 ug/ml. As to the method:
Anti-gp120 momoclonal antibody was 0.5beta from the NIAID AIDS Research and Reference Reagent Program (Matsushita et al J. Virol. 62:2107, 1988). […] The amount of fluoresence was determined on a flow cytometer and fluoresence brightness was expressed as MFC=mean channel fluoresence.
A general note: Flow cytometry measures light scatter and fluorescence of single cells or particles in a stream.

Test [3] concerns HIV MN. The experiment in a line: Syncytium inhibition assay with sera of immunized chimpanzees, HIV MN. In kind it is in vivo. The procedure: as §1
Test [4] concerns HIV LAI/IIIB. The experiment in a line: Reverse transcriptase inhibition assay with sera of immunized chimpanzees, HIV LAI/IIIB. It counts as in vivo. The procedure: as §1
Test [5] has as its system HIV LAI/IIIB. The experiment in a line: Syncytium inhibition assay with sera of immunized chimpanzees, HIV LAI/IIIB. It counts as in vivo. The procedure:
as §1

The test system of test [6] is HIV MN. The experiment in a line: Reverse transcriptase inhibition assay with sera of immunized chimpanzees, HIV MN. It counts as in vivo. The procedure:
as §1

Where [7] appears, read: chimpanzee 1045 serum, Month 19, prior F-Th-B(IIIB).
The mark [8] stands for this setting: chimpanzee 1045 serum, Month 20, prior F-Th-B(IIIB).
Setting [9] is: chimpanzee 1070 serum, Month 18, prior F-Th-B(IIIB).
Setting [10] is: chimpanzee 1070 serum, Month 19, prior F-Th-B(IIIB).
[11] abbreviates: chimpanzee 1070 serum, Month 20, prior F-Th-B(IIIB).

Regarding “KQIINMWQEVGKAMYACTRPNNNTRKSIRIQRGPG [Peptide T1-SP10IIIB, HIVIIIB Th-B peptide]”, the “PBMC proliferation to T1-SP10IIIB(A) peptide” value in [1] is given as “induced high levels of proliferation”. Besides, the “induction of serum anti-HIV neutralizing antibodies” value in the test with HIVIIIB is “induced anti-HIV neutralizing antibodies in goats”. In addition, in [2], the “immunogenicity in chimpanzees (antibody response)” value is recorded as “potent immunogens”.

Regarding “KQIINMWQEVGKAMYACTRPNNNTRKSIRIQRGPGRAFVTI [T1-SP10IIIB(A), HIVIIIB Th-B peptide with (A) region]”, the “% Intracytoplasmic Positive” value in the test on JY B cells (Anti-gp120 mab 0.5beta) and in the test with JY B cells (Control antibody (mab P3x63 AgS)) was 0% throughout. Further, in test [1], the “PBMC proliferation to T1-SP10IIIB(A) peptide” value is listed as “induced high levels of proliferation”. The “immunogenicity in chimpanzees (antibody response)” value in test [2] was “potent immunogens”. The “MFC 4 Degrees C., 1 Hr.” value against human JY B cells (4 degrees C, 1 hour) is 14.7. Also, in the test on human JY B cells (37 degrees C, 22 Hr.), the “MFC 37 Degrees C., 22 Hr.” value is 14.0.

As to “KQIINMWQEVGKAMYACTRPNYNKRKRIHIGPGRAFYTTK [T1-SP10MN(A), HIVMN Th-B peptide]”, the “detection of peptide inside the JY B cells” value in the test with JY B cells (10 ug/ml of peptide for 21 hours at 37 degrees C) was “could not be detected”. In addition, the “Presence of Neutralization in Syncytium Inhibition Assay” value with HIV MN [3] (chimpanzee 1045 serum, Month 18, prior F-Th-B(IIIB)) is “− (<48% inhibition of syncytia.)”; with HIV MN [3] (setting [7]) it was “− (<48% inhibition of syncytia.)”; in the test with HIV MN [3] (setting [8]) it was “− (<48% inhibition of syncytia.)”; with HIV MN [3] (setting [9]) it was “− (<48% inhibition of syncytia.)”; with HIV MN [3] (setting [10]) it was “+ (≧80% inhibition of syncytia, titer 1:10.)”; in the test on HIV MN [3] (setting [11]) it was “++ (≧80% inhibition of syncytia, titer 1:20.)”. Also, the “Presence of Neutralization in Syncytium Inhibition Assay” value with HIV LAI/IIIB [5] (setting [7]) was “+/− (≧49% and <80% inhibition of syncytia.)”; in the test with HIV LAI/IIIB [5] (setting [8]), “− (<48% inhibition of syncytia.)”; in the test with HIV LAI/IIIB [5] (setting [9]), “+/− (≧49% and <80% inhibition of syncytia.)”; in the test on HIV LAI/IIIB [5] (setting [10]) it was “+ (≧80% inhibition of syncytia, titer 1:10.)”; in the test on HIV LAI/IIIB [5] (setting [11]), “+/− (≧49% and <80% inhibition of syncytia.)”. Also, the “Reciprocal of ELISA Titer” value in [2] (chimpanzee 884, month 17, after Th-B(IIIB) months 2-14) is 12,800; in [2] (chimpanzee 884, month 18, after Th-B(IIIB) months 2-14), 25,600; in test [2] (chimpanzee 884, month 19, after Th-B(IIIB) months 2-14) it was 25,600; in [2] (chimpanzee 884, month 20, after Th-B(IIIB) months 2-14) it was 51,200; in [2] (chimpanzee 1028, month 17, after Th-B(IIIB) months 2-14, injections in PBS alone), 3,200; in [2] (chimpanzee 1028, month 18, after Th-B(IIIB) months 2-14, injections in PBS alone) it was 6,400. Moreover, the “Reciprocal of ELISA Titer” value in test [2] (chimpanzee 1028, month 19, after Th-B(IIIB) months 2-14, injections in PBS alone) is 1,600; in [2] (chimpanzee 1028, month 20, after Th-B(IIIB) months 2-14, injections in PBS alone), 6,400; in test [2] (chimpanzee 1045, month 17, after F-Th-B(IIIB) months 2-14 and Th-B(IIIB) month 16), 1,600; in test [2] (chimpanzee 1045, month 18, after F-Th-B(IIIB) months 2-14 and Th-B(IIIB) month 16) it was 6,400; in [2] (chimpanzee 1045, month 19, after F-Th-B(IIIB) months 2-14 and Th-B(IIIB) month 16), 6,400; in test [2] (chimpanzee 1045, month 20, after F-Th-B(IIIB) months 2-14 and Th-B(IIIB) month 16), 51,200. In addition, the “Reciprocal of ELISA Titer” value is listed as 3,200 in [2] (chimpanzee 1070, month 17, after F-Th-B(IIIB) months 2-14 and Th-B(IIIB) month 16); 25,600 in test [2] (chimpanzee 1070, month 18, after F-Th-B(IIIB) months 2-14 and Th-B(IIIB) month 16); 51,200 in test [2] (chimpanzee 1070, month 19, after F-Th-B(IIIB) months 2-14 and Th-B(IIIB) month 16); 102,400# in test [2] (chimpanzee 1070, month 20 (month 20 immunization not given), after F-Th-B(IIIB) months 2-14 and Th-B(IIIB) month 16). Also, the “Reciprocal Titer in RT Inhibition Assay” value in the test with HIV LAI/IIIB [4] (setting [7]) turned out to be 23; in the test with HIV LAI/IIIB [4] (setting [8]) it was 22; with HIV LAI/IIIB [4] (setting [9]), 92; in the test on HIV LAI/IIIB [4] (setting [10]), 100; with HIV LAI/IIIB [4] (setting [11]), 86; with HIV MN [6] (chimpanzee 884 serum, Month 18, prior Th-B(IIIB)), 20. Further, the “Reciprocal Titer in RT Inhibition Assay” value in the test on HIV MN [6] (chimpanzee 884 serum, Month 20, prior Th-B(IIIB)) is 24; in the test with HIV MN [6] (chimpanzee 1045 serum, Month 18, prior F-Th-B(IIIB), Th-B(IIIB)), 23; with HIV MN [6] (chimpanzee 1045 serum, Month 19, prior F-Th-B(IIIB), Th-B(IIIB)), 23; in the test on HIV MN [6] (chimpanzee 1045 serum, Month 20, prior F-Th-B(IIIB), Th-B(IIIB)), 24; with HIV MN [6] (chimpanzee 1070 serum, Month 18, prior F-Th-B(IIIB), Th-B(IIIB)) it was 22; with HIV MN [6] (chimpanzee 1070 serum, Month 19, prior F-Th-B(IIIB), Th-B(IIIB)), 96. Moreover, the “Reciprocal Titer in RT Inhibition Assay” value in the test with HIV MN [6] (chimpanzee 1070 serum, Month 20, prior F-Th-B(IIIB), Th-B(IIIB)) is 350.
